Laboratory results as given in ChEMBL document CHEMBL3526040, “Immune-mediated agranulocytosis caused by the cocaine adulterant levamisole: a case for reactive metabolite(s) involvement” (Drug Metab Dispos, 2012).
One block for each compound: values may come before it.

Columns and labels:
[1] = Drug excretion in human urine treated with [3H]-levamisole at 150 mg, po; type: ADME, tissue-based; details: in vivo
[2] = Renal clearance in male human at 150 mg, po; details: in vivo
[3] = Renal clearance in female human at 150 mg, po; details: in vivo
[4] = Oral bioavailability in human at 150 mg; details: in vivo
[5] = Oral bioavailability in male human at 150 mg; details: in vivo
[6] = Oral bioavailability in female human at 150 mg; details: in vivo
[7] = Renal excretion in human at 150 mg, po; details: urine
[8] = Half life in blood (unknown origin)
[9] = Plasma clearance in human at 150 mg, po
[10] = Plasma clearance in male human at 150 mg, po
[11] = Plasma clearance in female human at 150 mg, po
[12] = Elimination half life in human at 150 mg, po; details: in vivo
[13] = Elimination half life in male human at 150 mg, po; details: in vivo
[14] = Elimination half life in female human at 150 mg, po; details: in vivo
[15] = Volume of distribution at steady state in dog at 10 mg/kg, iv; details: in vivo
[16] = AUC in human at 150 mg, po; details: plasma
[17] = AUC in male human at 150 mg, po; details: plasma
[18] = AUC in female human at 150 mg, po; details: plasma
[19] = Cmax in human at 150 mg, po; details: in vivo
[20] = Cmax in male human at 150 mg, po; details: in vivo
[21] = Cmax in female human at 150 mg, po; details: in vivo
[22] = Tmax in human at 150 mg, po; details: in vivo
[23] = Tmax in male human at 150 mg, po; details: in vivo
[24] = Tmax in female human at 150 mg, po; details: in vivo
[25] = Renal clearance in human at 150 mg, po; details: in vivo
in vivo [26] = details: dog, po, 10 mg/kg
Description: Oral bioavailability in fasted dog at 10 mg/kg

in vivo [27] = details: dog, po, 10 mg/kg; remark: listed apart in the source
Description: Oral bioavailability in fed dog at 10 mg/kg

in vivo [28] = details: dog, plasma, iv, 10 mg/kg
Description: Plasma clearance in dog at 10 mg/kg, iv

in vivo [29] = details: dog, iv, 10 mg/kg
Description: Elimination half life in dog at 10 mg/kg, iv

in vivo [30] = details: dog, po, 10 mg/kg; remark: listed apart in the source
Description: Elimination half life in fasted dog at 10 mg/kg, po

in vivo [31] = details: dog, po, 10 mg/kg; remark: listed apart in the source
Description: Elimination half life in fed dog at 10 mg/kg, po

in vivo [32] = details: dog, plasma, iv, 10 mg/kg; remark: listed apart in the source
Description: AUC in dog at 10 mg/kg, iv

in vivo [33] = details: dog, plasma, po, 10 mg/kg
Description: AUC in fasted dog at 10 mg/kg, po

in vivo [34] = details: dog, plasma, po, 10 mg/kg; remark: listed apart in the source
Description: AUC in fed dog at 10 mg/kg, po

in vivo [35] = details: dog, po, 10 mg/kg; remark: listed apart in the source
Description: Cmax in fasted dog at 10 mg/kg, po

in vivo [36] = details: dog, po, 10 mg/kg; remark: listed apart in the source
Description: Cmax in fed dog at 10 mg/kg, po

in vivo [37] = details: dog, po, 10 mg/kg; remark: listed apart in the source
Description: Tmax in fasted dog at 10 mg/kg, po

in vivo [38] = details: dog, po, 10 mg/kg; remark: listed apart in the source
Description: Tmax in fed dog at 10 mg/kg, po

Drug excretion [1]: 25%
SMILES: Oc1ccc([C@H]2CN3CCSC3=N2)cc1

Drug excretion [1]: 25%
SMILES: O=C(O)[C@H]1O[C@@H](Oc2ccc([C@H]3CN4CCSC4=N3)cc2)[C@H](O)[C@@H](O)[C@@H]1O

CL renal [2]: 31 mL/min
CL renal [3]: 25 mL/min
bioavailability [4]: 62.5%
bioavailability [5]: 61.5%
bioavailability [6]: 64.7%
dose excreted [7]: 3%
half-life [8]: < 6 h
CL/F [9]: 8.04 mL/min/kg
CL/F [10]: 8.25 mL/min/kg
CL/F [11]: 7.56 mL/min/kg
half-life [12]: 5.6 h
half-life [13]: 5.4 h
half-life [14]: 5.9 h
Vd [15]: 1.42 L/kg
AUC [16]: 3070 ng·h/mL
AUC [17]: 3070 ng·h/mL
AUC [18]: 3070 ng·h/mL
Cmax [19]: 717 ng/mL
Cmax [20]: 672 ng/mL
Cmax [21]: 820 ng/mL
Tmax [22]: 1.5 h
Tmax [23]: 1.7 h
Tmax [24]: 1.1 h
CL renal [25]: 29.2 mL/min
bioavailability (in vivo [26]): 64%
bioavailability (in vivo [27]): 44%
clearance (in vivo [28]): 8.92 mL/min/kg
half-life (in vivo [29]): 1.8 h
half-life (in vivo [30]): 1.3 h
half-life (in vivo [31]): 1.6 h
AUC (in vivo [32]): 18100 ng·h/mL
AUC (in vivo [33]): 12200 ng·h/mL
AUC (in vivo [34]): 8940 ng·h/mL
Cmax (in vivo [35]): 3330 ng/mL
Cmax (in vivo [36]): 1980 ng/mL
Tmax (in vivo [37]): 1.8 h
Tmax (in vivo [38]): 4.5 h
SMILES: c1ccc([C@H]2CN3CCSC3=N2)cc1 [LEVAMISOLE]
